Results taken from the METLIN SMRT retention time set (Domingo-Almenara et al. 2019).

Test: gradient 5% acetonitrile 3 min, to 50% in 2 min, to 85% in 15 min, held 3 min, 100 µL/min
Conditions: column: Zorbax Extend-C18 2.1 x 50 mm; eluents: water / acetonitrile, 0.1% formic acid
Method in brief: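 Retention time was recorded from adduct peaks, which were picked computationally and each inspected manually. Pure standards ran in mixtures of ~100 molecules on HPLC coupled to a quadrupole time-of-flight mass spectrometer, in positive and negative ionization mode, through a Zorbax Extend-C18 column (2.1 × 50 mm, 1.8 μm) at 100 μL/min. Eluents were water and acetonitrile, each with 0.1% formic acid.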

Work on `Cc1ccn2cc(C(=O)N3CCN(c4ccccc4)CC3)nc2c1` yielded an RP-LC retention time of 634 s.

In the case of `CC(C)n1c(=O)sc2cc(S(=O)(=O)N3CCC(C(=O)N4CCOCC4)CC3)ccc21`, the RP-LC retention time is reported as 762 s.

`CCOc1ccc(CC(=O)N2c3ccccc3CC2c2nc(C3CC3)no2)cc1OCC` (stereo not drawn) gave an RP-LC retention time of 1070 s.

`COc1ccc(-c2cn3ccn(-c4ccc5c(c4)CCC5)c(=O)c3n2)cc1OC` gave an RP-LC retention time of 846 s.

Work on `O=C(NC1CCCCC1)C1CCCN(c2ncnc3c2oc2ccccc23)C1` (stereo not drawn) yielded an RP-LC retention time of 758 s.

`CCOC(=O)c1nc(N2CCc3ccccc32)c2ccccc2n1` showed an RP-LC retention time of 935 s.

Compound `O=C(Nc1c(-c2ccccc2)nc2ccccn12)c1c(F)cccc1F` has an RP-LC retention time of 630 s.

With `CN(C)c1cc(-n2cnc(C(=O)NCc3cccc(Cl)c3)c2)ncn1` the RP-LC retention time was 793 s.

`O=C(c1noc2c1CCCC2)N1CCc2ccccc2C1` showed an RP-LC retention time of 923 s.

For `COc1ccc(NC(=O)c2cnc(N3CCN(C4CCCCC4)CC3)nc2N)cc1`, the RP-LC retention time was 631 s.

Compound `Cc1cccc(OCCCn2c(CO)nc3ccccc32)c1` has an RP-LC retention time of 678 s.

With `COc1cccc(-c2nc(Cn3c(C)nc4ccccc4c3=O)no2)c1OC` the RP-LC retention time was 816 s.

For `O=C(Cc1csc2nc(-c3ccccc3)cn12)NCCCc1ccccc1`, the RP-LC retention time was 841 s.

`O=C(CSc1nnc(-c2ccncc2)o1)NCc1ccc2c(c1)OCO2` showed an RP-LC retention time of 596 s.

For `COc1ccccc1Nc1c(-c2ccc(N3CCOCC3)cc2)nc2cnccn12`, the RP-LC retention time was 806 s.

Compound `CC(C)NC(=O)c1ccccc1OCC1CCCN(C2CCC2)C1` (stereo not drawn) has an RP-LC retention time of 606 s.

Compound `COc1ccccc1CNc1c(-c2ccc(OC(C)C)cc2)nc2ncccn12` has an RP-LC retention time of 826 s.

`Cc1nn(C)c(C)c1CNC(=O)c1ccc2nc(Cc3ccccc3)oc2c1` gave an RP-LC retention time of 714 s.

In the case of `Cc1ccc(-c2cc3c(=O)n(Cc4noc(CN5CCCCC5C)n4)ccn3n2)cc1` (stereo not drawn), the RP-LC retention time is reported as 674 s.

For `O=S(=O)(c1ccc(Cl)cc1)c1ccc(N2CCN(c3ccccn3)CC2)nn1`, the RP-LC retention time was 651 s.

For `CCN(CC)c1ccc(NC(=O)Cn2cc3c(n2)CCCCC3)c(C)c1`, the RP-LC retention time was 674 s.

`CCOc1ccc(C2Cn3nnc(-c4nc(-c5ccc(C(F)(F)F)cc5)no4)c3CO2)cc1` (stereo not drawn) gave an RP-LC retention time of 1340 s.

Work on `O=C(Cc1ccc(Cl)cc1)N1CCN(S(=O)(=O)c2cc3c4c(c2)CCC(=O)N4CCC3)CC1` yielded an RP-LC retention time of 842 s.

Work on `COCCN1C(=O)CCc2cc(NS(=O)(=O)c3cc(Cl)ccc3OC)ccc21` yielded an RP-LC retention time of 803 s.

With `CCN1C(=O)c2cccnc2Sc2cc(NC(=O)C3(c4ccc(OC)cc4)CC3)ccc21` the RP-LC retention time was 939 s.

With `Cc1ccc(NC(=O)N2CCCC2c2nc(-c3ccccc3)no2)c(Cl)c1` (stereo not drawn) the RP-LC retention time was 1100 s.

`Cc1noc(-c2nn(C)c3c2CN(C(=O)Cc2ccc(Cl)cc2)CC3)n1` gave an RP-LC retention time of 762 s.

For `Cc1c(C(=O)NCCCN2CCOCC2)sc2ncnc(N3CCN(c4ccccn4)CC3)c12`, the RP-LC retention time was 558 s.

`COC(=O)c1ccc(NC(=O)C(=O)NCC2CCN(C(=O)c3ccccc3F)CC2)cc1` gave an RP-LC retention time of 751 s.

Work on `NC(=O)CSc1nc(-c2ccccc2)c(NC(=O)c2cc3ccccc3o2)s1` yielded an RP-LC retention time of 797 s.

Work on `Cc1cc(C)cc(NC(=O)C2CCN(S(=O)(=O)c3cc(C(=O)N4CCCC4)n(C)c3)CC2)c1` yielded an RP-LC retention time of 843 s.

`CC1Cc2cc(-c3cc(CC(=O)Nc4nc5ccccc5[nH]4)no3)ccc2O1` (stereo not drawn) gave an RP-LC retention time of 657 s.

`Cc1ccc(CCC(=O)Nc2cccc3ccccc23)o1` showed an RP-LC retention time of 847 s.

Compound `CS(=O)(=O)N1CCC(C(=O)Nc2cccc(C(F)(F)F)c2)Oc2ccc(Cl)cc21` (stereo not drawn) has an RP-LC retention time of 1060 s.

Work on `COc1cc(NC(=O)CCc2c(C)nn3cnnc3c2C)cc(OC)c1` yielded an RP-LC retention time of 662 s.

Compound `CC(C)c1cc(C(=O)NC2CCCC2)nc2ccnn12` has an RP-LC retention time of 979 s.

`Cc1ccc(N2CCC(N)C2=O)cc1C` (stereo not drawn) showed an RP-LC retention time of 584 s.

With `c1cc(CN2CCC(Oc3nccnc3N3CCOCC3)C2)ccn1` (stereo not drawn) the RP-LC retention time was 546 s.

In the case of `COCC(=O)Nc1nc(-c2ccc3c(c2)NC(=O)C(C)O3)cs1` (stereo not drawn), the RP-LC retention time is reported as 691 s.

Work on `CCOCC(=O)N1CCN(S(=O)(=O)c2c(C)nn(C(C)C)c2C)CC1` yielded an RP-LC retention time of 702 s.

Work on `Cc1ccn2cc(-c3ccc(NC(=O)c4cccc(F)c4)cc3)nc2n1` yielded an RP-LC retention time of 647 s.

`CCc1ccc2c(c1)-c1ccccc1S(=O)(=O)N2CC(=O)NCCCn1ccnc1` showed an RP-LC retention time of 675 s.

In the case of `O=C(Nc1cncc(-c2nc3ccccc3o2)c1)c1cccc(Cl)c1`, the RP-LC retention time is reported as 1010 s.

For `Cc1ccccc1Cn1cc(-c2ccncc2)cc1C(=O)NCC1CCCO1` (stereo not drawn), the RP-LC retention time was 667 s.

Compound `CCCn1cc(S(=O)(=O)Nc2cccc(F)c2)c2cccnc21` has an RP-LC retention time of 883 s.

For `O=C(NCc1ccccn1)c1ccc(NC(=O)C2CC2)cc1N1CCCCCC1`, the RP-LC retention time was 593 s.

With `Cc1ccc2c(C(=O)NCc3ccc(F)cc3F)cc(NC(=O)C(C)C)cc2n1` the RP-LC retention time was 660 s.

With `Cc1ccc(NC(=O)Cn2nc(C(=O)N3CCOCC3)c3ccccc32)c(Br)c1` the RP-LC retention time was 825 s.

`O=C(CC1CCN(S(=O)(=O)c2ccc(Cl)s2)CC1)N1CCN(c2ncccn2)CC1` gave an RP-LC retention time of 872 s.

`Cc1cccc(CN2CC(=O)N(c3cccc(C)c3)[C@@H]3CS(=O)(=O)C[C@@H]32)c1` showed an RP-LC retention time of 826 s.

`Cc1cc(C(=O)Nc2cccc(-c3ccc(N4CCOCC4)nn3)c2)c(C)o1` showed an RP-LC retention time of 638 s.

For `Cc1nc(OCC(=O)NCc2ccc(Cl)cc2)c2c(C)c(C)oc2n1`, the RP-LC retention time was 941 s.

Compound `O=C1CCN(C(=O)CC2CCCCC2)CCCOCCN1` has an RP-LC retention time of 646 s.

In the case of `O=c1ccc(S(=O)(=O)N2CCOCC2)cn1Cc1ccc(F)cc1`, the RP-LC retention time is reported as 759 s.

Work on `CC(C)N1C(=O)C(C)(C(=O)Nc2ccccc2F)Oc2cccnc21` (stereo not drawn) yielded an RP-LC retention time of 973 s.

`COc1ccc(CNC(=O)C2(C)CCN(C(=O)Nc3cccc(SC)c3)CC2)cc1` gave an RP-LC retention time of 845 s.

For `COC(=O)c1cccc(C(=O)Nc2ccc(Cl)cc2C)n1`, the RP-LC retention time was 971 s.

In the case of `O=C(c1ccc(=O)n(CCN2CCOCC2)c1)N1CCC(Cc2ccccc2)CC1`, the RP-LC retention time is reported as 637 s.

In the case of `COc1cc2c(cc1Cc1cccc(Cl)c1F)c(=O)c(C(=O)O)cn2[C@H](CO)C(C)C`, the RP-LC retention time is reported as 1090 s.

In the case of `COC(=O)c1sccc1NC(=O)Cn1c(C)cc(C)c(-c2nc(-c3ccc(F)cc3)no2)c1=O`, the RP-LC retention time is reported as 1070 s.

`C[C@@H]1CN(CC(=O)Nc2ccc3c(c2)Cc2cccc(-c4cc(=O)cc(N5CCOCC5)o4)c2S3)C[C@H](C)O1` showed an RP-LC retention time of 748 s.

With `CNC(=O)C1CCCN(C(=O)Nc2ccc(NC(=O)Nc3ccc(F)cc3)cc2)C1` (stereo not drawn) the RP-LC retention time was 665 s.

In the case of `COc1ccc(C2SCCN2S(=O)(=O)c2ccc(C)c([N+](=O)[O-])c2)cc1OC` (stereo not drawn), the RP-LC retention time is reported as 900 s.

With `N#Cc1ccc(C(=O)N2CCCC2c2nc(-c3ccc(F)cc3F)no2)cc1` (stereo not drawn) the RP-LC retention time was 921 s.

For `Cc1ccc(N(C)S(=O)(=O)c2cc(-c3[nH]ncc3C(=O)N3CCCC3)oc2C)cc1`, the RP-LC retention time was 776 s.

Work on `O=C(Cc1cccc(F)c1)N1CCCCC1c1nncn1CC1CC1` (stereo not drawn) yielded an RP-LC retention time of 677 s.

`CN1C(=O)c2ccccc2Oc2ccc(C(=O)NCCCc3ccccc3)cc21` gave an RP-LC retention time of 964 s.

Work on `O=C(C1=CN(c2ccc(F)cc2)c2ccccc2S1(=O)=O)N1CCOCC1` yielded an RP-LC retention time of 741 s.

Compound `O=C(Nc1cc(-c2ccccc2)[nH]n1)c1ccc(Cl)cc1` has an RP-LC retention time of 925 s.

With `CC(C)(C)C(=O)Oc1ccc(S(=O)(=O)Nc2ccccc2C(=O)NCC(=O)O)cc1` the RP-LC retention time was 961 s.

In the case of `O=C(Nc1ccc(C(F)(F)F)cc1)N1CC(n2cnnc2-c2ccccc2)C1`, the RP-LC retention time is reported as 784 s.

Compound `O=C(CCNc1c(-c2cccc(F)c2)nc2cnccn12)NCc1ccccc1F` has an RP-LC retention time of 742 s.

For `Cc1ccc(CN2CCCN(CC(=O)NC(C)CCc3ccccc3)S2(=O)=O)cc1` (stereo not drawn), the RP-LC retention time was 1050 s.

For `CN(C)c1ncncc1N1CCC(C(=O)NC2CCCCCC2)CC1`, the RP-LC retention time was 624 s.

`CCc1nnc(-c2cc(C)n(CC(=O)Nc3cccc(SC)c3)c2C)o1` showed an RP-LC retention time of 846 s.

For `COCCn1cc2c3c(cccc31)CN(C(=O)c1ccc(Br)o1)CC2`, the RP-LC retention time was 976 s.

Work on `Cc1cc(C)c2[nH]c3c(c(=O)c2c1)CN(CC(=O)NCc1ccccc1F)CC3` yielded an RP-LC retention time of 626 s.

`CCOc1ccccc1NC(=O)N1CCN(c2ccc(=O)n(-c3ccc(C)cc3)n2)CC1` gave an RP-LC retention time of 915 s.

`O=C(Nc1onc2c1CSC2)c1cccc(-n2cnnn2)c1` showed an RP-LC retention time of 647 s.

With `Cc1cc(=O)c(OCc2ccccc2F)cn1CC(=O)NCc1ccco1` the RP-LC retention time was 593 s.

Compound `COc1ccc(OC)c(NC(=O)c2[nH]c(C)c(S(=O)(=O)N3CCCCC3)c2C)c1` has an RP-LC retention time of 1020 s.

For `O=C(Cn1cnc2nc(N3CCCC(C(=O)NC4CC4)C3)sc2c1=O)Nc1cc(F)cc(F)c1` (stereo not drawn), the RP-LC retention time was 717 s.

In the case of `Fc1cc(F)cc(-c2nnc(Cc3nc(-c4ccccn4)no3)o2)c1`, the RP-LC retention time is reported as 814 s.

Compound `CC(=O)c1cccc(NC(=O)CN2C(=O)C3CCCCN3c3ccc(C(=O)N4CCCC4)cc32)c1` (stereo not drawn) has an RP-LC retention time of 780 s.

For `Cc1cccc(NC(=O)Cn2cnc3nc(N4CCCC(C(=O)NC(C)C)C4)sc3c2=O)c1C` (stereo not drawn), the RP-LC retention time was 712 s.

`Cc1[nH]nc(-c2c(C)sc(C)c2S(=O)(=O)NC2CCCc3ccccc32)c1C` (stereo not drawn) gave an RP-LC retention time of 1130 s.

`COc1cccc(C(=O)N2CCN(c3nc4ccccc4n(C)c3=O)CC2)c1` gave an RP-LC retention time of 877 s.

`CCOC(=O)c1noc2nc(C)nc(Nc3ccc(C)cc3)c12` gave an RP-LC retention time of 936 s.
